Reference: ChEMBL document CHEMBL3822376, “Potent anticholinesterasic and neuroprotective pyranotacrines as inhibitors of beta-amyloid aggregation, oxidative stress and tau-phosphorylation for Alzheimer's disease” (Eur J Med Chem, 2016)
Calls of active or inactive are those of the source. The rule behind the calls is not given here.

test system: SH-SY5Y; experiment: Neuroprotective activity in human SH-SY5Y cells assessed as reversal of 20 nM okadaic acid-induced cell death at 1 to 10 uM after 24 hrs by XTT assay; format: functional, cell-based; conditions: not given

Structure (SMILES) | Activity
COC(=O)C1=C(C)Oc2nc3c(c(N)c2C1c1cc2ccc(OC)cc2nc1Cl)CCCC3 (stereo not drawn) | Active
CCOC(=O)C1=C(C)Oc2nc3c(c(N)c2C1c1cc2ccc(OC)cc2nc1Cl)CCCCC3 (stereo not drawn) | inactive
COC(=O)C1=C(C)Oc2nc3c(c(N)c2C1c1cc2ccc(OC)cc2nc1Cl)CCC3 (stereo not drawn) | Active

test system: SH-SY5Y; experiment: Neuroprotective activity in human SH-SY5Y cells assessed as reversal of 15 nM okadaic acid-induced cell death at 1 to 10 uM after 24 hrs by XTT assay; format: functional, cell-based; conditions: not given

Structure (SMILES) | Activity
COC(=O)C1=C(C)Oc2nc3c(c(N)c2C1c1cc2ccc(OC)cc2nc1Cl)CCCC3 (stereo not drawn) | Active

test system: SH-SY5Y; experiment: Neuroprotective activity against 20 nM okadaic acid-induced cell death in human SH-SY5Y cells at 5 to 10 uM after 24 hrs by phase contrast microscopic analysis; format: functional, cell-based; conditions: not given

Structure (SMILES) | Activity
COC(=O)C1=C(C)Oc2nc3c(c(N)c2C1c1cc2ccc(OC)cc2nc1Cl)CCCC3 (stereo not drawn) | Active

test system: SH-SY5Y; experiment: Neuroprotective activity against amyloid beta (1 to 40)-induced cell death in human SH-SY5Y cells at 10 uM after 48 hrs by phase contrast microscopic analysis; format: functional, cell-based; conditions: not given

Structure (SMILES) | Activity
COC(=O)C1=C(C)Oc2nc3c(c(N)c2C1c1cc2ccc(OC)cc2nc1Cl)CCCC3 (stereo not drawn) | Active

test system: SH-SY5Y; experiment: Neuroprotective activity against amyloid beta (1 to 40)-induced cell death in human SH-SY5Y cells assessed as increase in cell viability at 10 uM after 48 hrs by XTT assay; format: functional, cell-based; conditions: not given

Structure (SMILES) | Activity
COC(=O)C1=C(C)Oc2nc3c(c(N)c2C1c1cc2ccc(OC)cc2nc1Cl)CCCC3 (stereo not drawn) | Active
CCOC(=O)C1=C(C)Oc2nc3c(c(N)c2C1c1cc2ccc(OC)cc2nc1Cl)CCCCC3 (stereo not drawn) | Active
COC(=O)C1=C(C)Oc2nc3c(c(N)c2C1c1cc2ccc(OC)cc2nc1Cl)CCC3 (stereo not drawn) | Active

biological target: Cholinesterase (Equus caballus) (UniProt P81908); experiment: Inhibition of horse serum BuChE using […] as substrate at 50 uM preincubated for 15 mins followed by substrate addition by Ellman's method relative to control; conditions: not given
Sequence (P81908 whole entry): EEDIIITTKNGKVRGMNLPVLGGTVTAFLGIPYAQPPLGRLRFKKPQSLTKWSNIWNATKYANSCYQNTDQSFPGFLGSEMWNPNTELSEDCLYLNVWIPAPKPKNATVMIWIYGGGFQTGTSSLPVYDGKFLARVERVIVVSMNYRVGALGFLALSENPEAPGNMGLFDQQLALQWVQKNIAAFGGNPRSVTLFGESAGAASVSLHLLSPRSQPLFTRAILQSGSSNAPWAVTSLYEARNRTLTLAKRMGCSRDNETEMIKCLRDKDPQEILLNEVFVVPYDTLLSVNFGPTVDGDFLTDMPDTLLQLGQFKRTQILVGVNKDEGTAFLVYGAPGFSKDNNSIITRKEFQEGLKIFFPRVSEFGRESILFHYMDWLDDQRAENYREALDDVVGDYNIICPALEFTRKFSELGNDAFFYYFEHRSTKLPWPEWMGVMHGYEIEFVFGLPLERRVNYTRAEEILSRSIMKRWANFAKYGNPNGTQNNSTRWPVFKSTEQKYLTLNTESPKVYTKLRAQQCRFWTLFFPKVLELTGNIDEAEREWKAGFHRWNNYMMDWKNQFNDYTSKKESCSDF

Structure (SMILES) | inhibition [%]
COC(=O)C1=C(C)Oc2nc3c(c(N)c2C1c1cc2ccc(OC)cc2nc1Cl)CCCC3 (stereo not drawn) | 50

biological target: Acetylcholinesterase (Electrophorus electricus) (UniProt O42275); experiment: Inhibition of electric eel AChE-induced amyloid beta (1 to 40) aggregation at 25 uM measured every 24 hrs for 7 days by Thioflavin T based fluorometric assay relative to control; conditions: not given
Sequence (O42275 24-633 limits assumed): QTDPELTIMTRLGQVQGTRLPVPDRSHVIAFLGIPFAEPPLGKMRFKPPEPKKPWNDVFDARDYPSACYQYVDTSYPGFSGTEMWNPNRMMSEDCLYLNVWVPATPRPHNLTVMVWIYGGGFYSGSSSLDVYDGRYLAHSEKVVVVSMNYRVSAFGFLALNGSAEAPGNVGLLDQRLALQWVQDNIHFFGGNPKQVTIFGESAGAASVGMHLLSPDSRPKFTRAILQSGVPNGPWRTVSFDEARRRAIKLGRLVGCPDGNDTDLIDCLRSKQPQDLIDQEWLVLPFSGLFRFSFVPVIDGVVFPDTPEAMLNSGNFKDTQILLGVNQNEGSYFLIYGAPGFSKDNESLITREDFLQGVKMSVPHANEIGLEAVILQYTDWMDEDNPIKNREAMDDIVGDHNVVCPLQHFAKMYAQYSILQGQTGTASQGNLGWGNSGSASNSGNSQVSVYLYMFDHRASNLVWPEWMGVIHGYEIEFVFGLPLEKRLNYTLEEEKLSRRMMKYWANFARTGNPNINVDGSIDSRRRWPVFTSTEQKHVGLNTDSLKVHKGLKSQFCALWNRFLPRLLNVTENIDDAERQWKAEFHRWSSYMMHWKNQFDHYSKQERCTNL

Structure (SMILES) | inhibition [%]
COC(=O)C1=C(C)Oc2nc3c(c(N)c2C1c1cc2ccc(OC)cc2nc1Cl)CCCC3 (stereo not drawn) | 75

biological target: T1, Acetylcholinesterase (Electrophorus electricus, UniProt O42275); experiment: Mixed-type inhibition of electric eel AChE using acetylthiocholine as substrate preincubated for 15 mins followed by substrate addition by Dixon plot analysis; conditions: not given
T1 sequence (O42275 whole entry): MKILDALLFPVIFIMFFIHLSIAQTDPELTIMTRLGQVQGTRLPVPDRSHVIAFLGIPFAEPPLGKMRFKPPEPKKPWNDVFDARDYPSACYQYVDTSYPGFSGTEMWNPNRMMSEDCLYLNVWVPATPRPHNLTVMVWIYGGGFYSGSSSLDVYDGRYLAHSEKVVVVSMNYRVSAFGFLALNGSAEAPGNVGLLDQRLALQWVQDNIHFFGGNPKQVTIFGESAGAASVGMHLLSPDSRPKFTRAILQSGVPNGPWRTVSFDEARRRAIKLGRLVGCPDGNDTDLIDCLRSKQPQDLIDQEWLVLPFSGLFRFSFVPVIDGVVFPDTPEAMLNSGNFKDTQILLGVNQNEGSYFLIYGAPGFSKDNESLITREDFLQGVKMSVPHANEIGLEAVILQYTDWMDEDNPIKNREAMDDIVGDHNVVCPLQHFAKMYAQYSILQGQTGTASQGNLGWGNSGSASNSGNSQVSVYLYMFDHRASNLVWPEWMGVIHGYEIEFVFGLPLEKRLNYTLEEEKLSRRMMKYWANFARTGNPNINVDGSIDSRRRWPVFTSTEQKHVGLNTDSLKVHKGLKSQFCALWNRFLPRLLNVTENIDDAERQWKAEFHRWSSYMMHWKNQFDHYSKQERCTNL

Structure (SMILES) | Ki [µM]
COC(=O)C1=C(C)Oc2nc3c(c(N)c2C1c1cc2ccc(OC)cc2nc1Cl)CCCC3 (stereo not drawn) | 0.0142

biological target: Acetylcholinesterase (Homo sapiens) (UniProt P22303); experiment: Inhibition of AChE in human SH-SY5Y cells assessed as inhibition of amyloid beta (1 to 40) (unknown origin)-induced amyloid beta aggregation at 5 to 10 uM measured every 24 hrs for 7 days by Thioflavin T based fluorometric assay; format: cell-based; conditions: not given
Sequence (P22303 whole entry): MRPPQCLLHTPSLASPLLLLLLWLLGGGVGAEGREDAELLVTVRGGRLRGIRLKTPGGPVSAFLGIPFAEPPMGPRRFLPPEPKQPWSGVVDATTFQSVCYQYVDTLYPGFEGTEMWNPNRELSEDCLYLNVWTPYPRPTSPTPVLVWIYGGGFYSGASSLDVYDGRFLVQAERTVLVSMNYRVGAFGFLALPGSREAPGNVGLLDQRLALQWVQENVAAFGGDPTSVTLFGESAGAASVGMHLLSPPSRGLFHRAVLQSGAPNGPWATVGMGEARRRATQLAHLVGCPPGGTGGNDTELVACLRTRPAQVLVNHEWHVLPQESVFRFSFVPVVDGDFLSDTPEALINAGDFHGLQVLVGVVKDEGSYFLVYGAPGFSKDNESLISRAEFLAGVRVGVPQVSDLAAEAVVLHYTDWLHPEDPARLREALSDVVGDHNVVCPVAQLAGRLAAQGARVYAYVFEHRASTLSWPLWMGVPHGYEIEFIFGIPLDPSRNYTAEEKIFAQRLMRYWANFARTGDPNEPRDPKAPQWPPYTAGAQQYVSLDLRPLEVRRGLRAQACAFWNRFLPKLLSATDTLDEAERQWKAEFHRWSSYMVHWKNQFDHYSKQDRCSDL

Structure (SMILES) | inhibition
COC(=O)C1=C(C)Oc2nc3c(c(N)c2C1c1cc2ccc(OC)cc2nc1Cl)CCCC3 (stereo not drawn) | Active

biological target: Acetylcholinesterase (Homo sapiens) (UniProt P22303); experiment: Inhibition of AChE in human SH-SY5Y cells assessed as inhibition of amyloid beta (1 to 40) (unknown origin)-induced tau phosphorylation at Ser-396 residue at 5 to 10 uM after 48 hrs by Western blot analysis; format: cell-based; conditions: not given

Structure (SMILES) | inhibition
COC(=O)C1=C(C)Oc2nc3c(c(N)c2C1c1cc2ccc(OC)cc2nc1Cl)CCCC3 (stereo not drawn) | Active

biological target: T1, Acetylcholinesterase; experiment: not given; conditions: not given

Structure (SMILES) | IC50 [µM]
COC(=O)C1=C(C)Oc2nc3c(c(N)c2C1c1cc2ccc(OC)cc2nc1Cl)CCCC3 (stereo not drawn) | 0.47
CCOC(=O)C1=C(C)Oc2nc3c(c(N)c2C1c1cc2ccc(OC)cc2nc1Cl)CCCCC3 (stereo not drawn) | 9.8
COC(=O)C1=C(C)Oc2nc3c(c(N)c2C1c1cc2ccc(OC)cc2nc1Cl)CCC3 (stereo not drawn) | 1.66

biological target: Acetylcholinesterase (Electrophorus electricus) (UniProt O42275); experiment: not given; conditions: 25 uM

Structure (SMILES) | inhibition [%]
COC(=O)C1=C(C)Oc2nc3c(c(N)c2C1c1cc2ccc(OC)cc2nc1Cl)CCCC3 (stereo not drawn) | 65

test system: SH-SY5Y; experiment: cells; conditions: Homo sapiens, 24 h
Description: Neuroprotective activity against rotenone/oligomycin-A-induced cell death in human SH-SY5Y cells assessed as increase in cell viability after 24 hrs by XTT assay

Structure (SMILES) | EC50 [µM]
COC(=O)C1=C(C)Oc2nc3c(c(N)c2C1c1cc2ccc(OC)cc2nc1Cl)CCCC3 (stereo not drawn) | 0.63
CCOC(=O)C1=C(C)Oc2nc3c(c(N)c2C1c1cc2ccc(OC)cc2nc1Cl)CCCCC3 (stereo not drawn) | 4.7
COC(=O)C1=C(C)Oc2nc3c(c(N)c2C1c1cc2ccc(OC)cc2nc1Cl)CCC3 (stereo not drawn) | 11.8

test system: not listed separately; experiment: in vitro; conditions: human, SH-SY5Y cells
Description: Neurotoxicity in human SH-SY5Y cells assessed as cell viability at 10 uM after 24 hrs by XTT assay relative to control

Structure (SMILES) | viability at 24 h, 10 µM [%]
COC(=O)C1=C(C)Oc2nc3c(c(N)c2C1c1cc2ccc(OC)cc2nc1Cl)CCCC3 (stereo not drawn) | 113
CCOC(=O)C1=C(C)Oc2nc3c(c(N)c2C1c1cc2ccc(OC)cc2nc1Cl)CCCCC3 (stereo not drawn) | 106
COC(=O)C1=C(C)Oc2nc3c(c(N)c2C1c1cc2ccc(OC)cc2nc1Cl)CCC3 (stereo not drawn) | 98

test system: not listed separately; experiment: in vitro; conditions: human, SH-SY5Y cells; remark: another data set of the same source
Description: Neurotoxicity in human SH-SY5Y cells assessed as cell viability at 25 uM after 24 hrs by XTT assay relative to control

Structure (SMILES) | viability at 24 h, 25 µM [%]
COC(=O)C1=C(C)Oc2nc3c(c(N)c2C1c1cc2ccc(OC)cc2nc1Cl)CCCC3 (stereo not drawn) | 133
CCOC(=O)C1=C(C)Oc2nc3c(c(N)c2C1c1cc2ccc(OC)cc2nc1Cl)CCCCC3 (stereo not drawn) | 109
COC(=O)C1=C(C)Oc2nc3c(c(N)c2C1c1cc2ccc(OC)cc2nc1Cl)CCC3 (stereo not drawn) | 118

test system: not listed separately; experiment: in vitro; conditions: human, SH-SY5Y cells; remark: another data set of the same source
Description: Neurotoxicity in human SH-SY5Y cells assessed as cell viability at 50 uM after 24 hrs by XTT assay relative to control

Structure (SMILES) | viability at 24 h, 50 µM [%]
COC(=O)C1=C(C)Oc2nc3c(c(N)c2C1c1cc2ccc(OC)cc2nc1Cl)CCCC3 (stereo not drawn) | 82.5
CCOC(=O)C1=C(C)Oc2nc3c(c(N)c2C1c1cc2ccc(OC)cc2nc1Cl)CCCCC3 (stereo not drawn) | 106
COC(=O)C1=C(C)Oc2nc3c(c(N)c2C1c1cc2ccc(OC)cc2nc1Cl)CCC3 (stereo not drawn) | 93.2

test system: not listed separately; experiment: in vitro; conditions: human, HepG2 cells
Description: Hepatotoxicity in human HepG2 cells assessed as reduction in cell viability by MTT assay

Structure (SMILES) | EC50 [µM]
COC(=O)C1=C(C)Oc2nc3c(c(N)c2C1c1cc2ccc(OC)cc2nc1Cl)CCCC3 (stereo not drawn) | 622
CCOC(=O)C1=C(C)Oc2nc3c(c(N)c2C1c1cc2ccc(OC)cc2nc1Cl)CCCCC3 (stereo not drawn) | 656
COC(=O)C1=C(C)Oc2nc3c(c(N)c2C1c1cc2ccc(OC)cc2nc1Cl)CCC3 (stereo not drawn) | 540

test system: not listed separately; experiment: in vitro; conditions: human, HepG2 cells; remark: another data set of the same source

Structure (SMILES) | selectivity ratio
COC(=O)C1=C(C)Oc2nc3c(c(N)c2C1c1cc2ccc(OC)cc2nc1Cl)CCCC3 (stereo not drawn) | 3.4

test system: not listed separately; experiment: in vitro; conditions: human, SH-SY5Y cells; remark: another data set of the same source
Description: Neurotoxicity in human SH-SY5Y cells assessed as cell viability at 0.1 uM after 24 hrs by XTT assay relative to control

Structure (SMILES) | viability at 24 h, 0.1 µM [%]
COC(=O)C1=C(C)Oc2nc3c(c(N)c2C1c1cc2ccc(OC)cc2nc1Cl)CCCC3 (stereo not drawn) | 128
CCOC(=O)C1=C(C)Oc2nc3c(c(N)c2C1c1cc2ccc(OC)cc2nc1Cl)CCCCC3 (stereo not drawn) | 84.2
COC(=O)C1=C(C)Oc2nc3c(c(N)c2C1c1cc2ccc(OC)cc2nc1Cl)CCC3 (stereo not drawn) | 104

test system: not listed separately; experiment: in vitro; conditions: human, SH-SY5Y cells; remark: another data set of the same source
Description: Neurotoxicity in human SH-SY5Y cells assessed as cell viability at 1 uM after 24 hrs by XTT assay relative to control

Structure (SMILES) | viability at 24 h, 1 µM [%]
COC(=O)C1=C(C)Oc2nc3c(c(N)c2C1c1cc2ccc(OC)cc2nc1Cl)CCCC3 (stereo not drawn) | 105
CCOC(=O)C1=C(C)Oc2nc3c(c(N)c2C1c1cc2ccc(OC)cc2nc1Cl)CCCCC3 (stereo not drawn) | 99
COC(=O)C1=C(C)Oc2nc3c(c(N)c2C1c1cc2ccc(OC)cc2nc1Cl)CCC3 (stereo not drawn) | 94.2

test system: not listed separately; experiment: in vitro; conditions: human, SH-SY5Y cells; remark: another data set of the same source
Description: Neurotoxicity in human SH-SY5Y cells assessed as cell viability at 5 uM after 24 hrs by XTT assay relative to control

Structure (SMILES) | viability at 24 h, 5 µM [%]
COC(=O)C1=C(C)Oc2nc3c(c(N)c2C1c1cc2ccc(OC)cc2nc1Cl)CCCC3 (stereo not drawn) | 132
CCOC(=O)C1=C(C)Oc2nc3c(c(N)c2C1c1cc2ccc(OC)cc2nc1Cl)CCCCC3 (stereo not drawn) | 125
COC(=O)C1=C(C)Oc2nc3c(c(N)c2C1c1cc2ccc(OC)cc2nc1Cl)CCC3 (stereo not drawn) | 114
